Reference: ChEMBL document CHEMBL1141743, “Malyngamides M and N from the Hawaiian Red Alga Gracilaria coronopifolia” (J Nat Prod, 1998)

Experiment: Cytotoxicity against mouse NB cells
Type: functional, cell-based
With `CCCCCCC[C@@H](C/C=C/CCC(=O)N(C)C/C(=C/Cl)c1cccc(C)c1O)OC` [MALYNGAMIDE M] the IC50 was greater than 20 µM.
`CCCCCCC[C@@H](C/C=C/CCC(=O)N(C)C/C(=C/Cl)[C@]12O[C@H]1CC=C(C)C2=O)OC` [MALYNGAMIDE N] showed an IC50 of 12 µM.
With `CCCCCCC[C@@H](C/C=C/CCC(=O)N(C)C/C(=C/Cl)[C@]12O[C@H]1C[C@@H](OC(C)=O)[C@@H](C)C2=O)OC` the IC50 was 12 µM.
